In ChEMBL document CHEMBL1681651, “A broad spectrum anticancer nucleoside with selective toxicity against human colon cells in vitro” (2011):

Legend:
Format in all cases: functional
PC-3 [1] = experiment: Growth inhibition of human PC3 cells assessed as cell growth at 1 mM after 48 hrs by SRB assay; settings: PC-3, 48 h, read-out: Activity
HCT-15 = experiment: Growth inhibition of human HCT15 cells after 48 hrs by […] growth inhibition assay; settings: HCT-15, 48 h
NCI/ADR-RES = experiment: Growth inhibition of human NCI/ADR-RES cells assessed as cell growth at 1 mM after 48 hrs by SRB assay; settings: read-out: Activity
MCF7 = experiment: Growth inhibition of human MCF7 cells assessed as cell growth at 1 mM after 48 hrs by SRB assay; settings: Homo sapiens, MCF7, 48 h; read-out: Activity
HL-60(TB) [2] = experiment: Growth inhibition of human HL-60(TB) cells assessed as cell growth at 1 mM after 48 hrs by SRB assay; settings: HL-60, 48 h, read-out: Activity
SW-620 [3] = experiment: Growth inhibition of human SW620 cells assessed as cell growth at 0.1 uM after 48 hrs by SRB assay; settings: SW-620, 48 h, read-out: Activity
SW-620 [4] = experiment: Growth inhibition of human SW620 cells after 48 hrs by […] growth inhibition assay; settings: SW-620, 48 h
PC-3 [5] = experiment: Growth inhibition of human PC3 cells assessed as cell growth at 1 uM after 48 hrs by SRB assay; settings: PC-3, 48 h, read-out: Activity
SK-MEL-28 [6] = experiment: Growth inhibition of human SK-MEL-28 cells assessed as cell growth at 0.1 uM after 48 hrs by SRB assay; settings: SK-MEL-28, 48 h, read-out: Activity
SW-620 [7] = experiment: Growth inhibition of human SW620 cells assessed as cell growth at 1 uM after 48 hrs by SRB assay; settings: SW-620, 48 h, read-out: Activity
K562 [8] = experiment: Growth inhibition of human K562 cells assessed as cell growth at 1 mM after 48 hrs by SRB assay; settings: K562, 48 h, read-out: Activity
[9] = Growth inhibition of human Hs 578T cells assessed as cell growth at 1 uM after 48 hrs by SRB assay; settings: read-out: Activity
HCC 2998 = experiment: Growth inhibition of human HCC2998 cells assessed as cell growth at 100 uM after 48 hrs by SRB assay; settings: HCC 2998, 48 h, read-out: Activity
SNB-19 = experiment: Growth inhibition of human SNB19 cells assessed as cell growth at 10 uM after 48 hrs by SRB assay; settings: SNB-19, 48 h, read-out: Activity
HL-60(TB) [10] = experiment: Growth inhibition of human HL-60(TB) cells after 48 hrs by […] growth inhibition assay; settings: HL-60, 48 h
HL-60(TB) [11] = experiment: Growth inhibition of human HL-60(TB) cells assessed as cell growth at 100 uM after 48 hrs by SRB assay; settings: HL-60, 48 h, read-out: Activity
SK-MEL-28 [12] = experiment: Growth inhibition of human SK-MEL-28 cells assessed as cell growth at 1 uM after 48 hrs by SRB assay; settings: SK-MEL-28, 48 h, read-out: Activity
T47D = experiment: Growth inhibition of human T47D cells assessed as cell growth at 100 uM after 48 hrs by SRB assay; settings: read-out: Activity
SR [13] = experiment: Growth inhibition of human SR cells assessed as cell growth at 1 mM after 48 hrs by SRB assay; settings: read-out: Activity
SK-MEL-28 [14] = experiment: Growth inhibition of human SK-MEL-28 cells assessed as cell growth at 1 mM after 48 hrs by SRB assay; settings: SK-MEL-28, 48 h, read-out: Activity
SR [15] = experiment: Growth inhibition of human SR cells assessed as cell growth at 100 uM after 48 hrs by SRB assay; settings: read-out: Activity
SK-MEL-28 [16] = experiment: Growth inhibition of human SK-MEL-28 cells assessed as cell growth at 100 uM after 48 hrs by SRB assay; settings: SK-MEL-28, 48 h, read-out: Activity
K562 [17] = experiment: Growth inhibition of human K562 cells assessed as cell growth at 100 uM after 48 hrs by SRB assay; settings: K562, 48 h, read-out: Activity
[18] = Growth inhibition of human Hs 578T cells assessed as cell growth at 100 uM after 48 hrs by SRB assay; settings: read-out: Activity
SW-620 [19] = experiment: Growth inhibition of human SW620 cells assessed as cell growth at 100 uM after 48 hrs by SRB assay; settings: SW-620, 48 h, read-out: Activity
DU-145 = experiment: Growth inhibition of human DU145 cells assessed as cell growth at 10 uM after 48 hrs by SRB assay; settings: DU-145, 48 h, read-out: Activity
HOP-92 = experiment: Growth inhibition of human HOP92 cells after 48 hrs by […] growth inhibition assay; settings: HOP-92, 48 h
SR [20] = experiment: Growth inhibition of human SR cells after 48 hrs by SRB assay
MDA-MB-231 = experiment: Growth inhibition of human MDA-MB-231 cells assessed as cell growth at 0.1 uM after 48 hrs by SRB assay; settings: MDA-MB-231, 48 h, read-out: Activity
PC-3 [21] = experiment: Growth inhibition of human PC3 cells assessed as cell growth at 0.1 uM after 48 hrs by SRB assay; settings: PC-3, 48 h, read-out: Activity
K562 [22] = experiment: Growth inhibition of human K562 cells assessed as cell growth at 0.1 uM after 48 hrs by SRB assay; settings: K562, 48 h, read-out: Activity
K562 [23] = experiment: Growth inhibition of human K562 cells assessed as cell growth at 1 uM after 48 hrs by SRB assay; settings: K562, 48 h, read-out: Activity
SN12C = experiment: Growth inhibition of human SN12C cells assessed as cell growth at 1 mM after 48 hrs by SRB assay; settings: read-out: Activity
PC-3 [24] = experiment: Growth inhibition of human PC3 cells assessed as cell growth at 100 uM after 48 hrs by SRB assay; settings: PC-3, 48 h, read-out: Activity
TK-10 = experiment: Growth inhibition of human TK10 cells assessed as cell growth at 0.1 uM after 48 hrs by SRB assay; settings: TK-10, 48 h, read-out: Activity
K562 [25] = experiment: Growth inhibition of human K562 cells after 48 hrs by […] growth inhibition assay; settings: K562, 48 h
[26] = read-out: LC50 (the source's name)
[27] = read-out: pLC50 (the source's name) (converted)

`CCOC(=O)C[C@H]1[C@@H](O[Si](C)(C)C(C)(C)C)[C@H](n2cnc3c(NC(=O)Nc4ccccc4)ncnc32)O[C@@H]1CNC(=O)NC` showed a growth at 1000 µM (PC-3 [1]) of -77%, a GI50 (HCT-15; read-out: GI50) of 8.5 µM and a CC50 (HCT-15; [26]) greater than 100 µM. It also gave a TGI (HCT-15; read-out: TGI) greater than 100 µM, a GI50 (HCT-15; read-out: pGI50 (converted)) of 8.51 µM and a CC50 (HCT-15; [27]) greater than 100 µM. It also gave a TGI (HCT-15; read-out: pTGI) greater than 100 µM, a growth at 1000 µM (NCI/ADR-RES) of 59% and a growth at 1000 µM (MCF7) of -8%. It also gave a growth at 1000 µM (HL-60(TB) [2]) of 22%, a growth at 0.1 µM (SW-620 [3]) of 97% and a GI50 (SW-620 [4]; read-out: GI50) of 4.8 µM. For the same molecule, the CC50 (SW-620 [4]; [26]) was greater than 100 µM, the TGI (SW-620 [4]; read-out: TGI) was 28.4 µM and the GI50 (SW-620 [4]; read-out: pGI50 (converted)) was 4.79 µM. For the same molecule, the CC50 (SW-620 [4]; [27]) was greater than 100 µM, the TGI (SW-620 [4]; read-out: pTGI (converted)) was 28.2 µM and the growth at 1 µM (PC-3 [5]) was 126%. The growth at 0.1 µM (SK-MEL-28 [6]) was 104%, the growth at 1 µM (SW-620 [7]) was 94% and the growth at 1000 µM (K562 [8]) was -17%. For the same molecule, the growth at 1 µM [9] was 95%, the growth at 100 µM (HCC 2998) was 69% and the growth at 10 µM (SNB-19) was 87%. The GI50 (HL-60(TB) [10]; read-out: GI50) was 3.01 µM, the CC50 (HL-60(TB) [10]; [26]) was greater than 100 µM and the GI50 (HL-60(TB) [10]; read-out: pGI50 (converted)) was 3.02 µM. It also gave a CC50 (HL-60(TB) [10]; [27]) greater than 100 µM, a growth at 100 µM (HL-60(TB) [11]) of -5% and a growth at 1 µM (SK-MEL-28 [12]) of 106%. For the same molecule, the growth at 100 µM (T47D) was 16%, the growth at 1000 µM (SR [13]) was -34% and the growth at 1000 µM (SK-MEL-28 [14]) was -91%. For the same molecule, the growth at 100 µM (SR [15]) was -15%, the growth at 100 µM (SK-MEL-28 [16]) was 40% and the growth at 100 µM (K562 [17]) was 19%. The growth at 100 µM [18] was 18%, the growth at 100 µM (SW-620 [19]) was 28% and the growth at 10 µM (DU-145) was 110%. The GI50 (HOP-92; read-out: GI50) was less than 0.01 µM, the CC50 (HOP-92; [26]) was 41.2 µM and the GI50 (HOP-92; read-out: pGI50 (converted)) was less than 0.01 µM. The CC50 (HOP-92; [27]) was 40.7 µM, the GI50 (SR [20]; read-out: GI50) was 2.23 µM and the CC50 (SR [20]; [26]) was greater than 100 µM. The TGI (SR [20]; read-out: TGI) was 7.07 µM, the GI50 (SR [20]; read-out: pGI50 (converted)) was 2.24 µM and the CC50 (SR [20]; [27]) was greater than 100 µM. The TGI (SR [20]; read-out: pTGI (converted)) was 7.08 µM, the growth at 0.1 µM (MDA-MB-231) was 101% and the growth at 0.1 µM (PC-3 [21]) was 121%. It also gave a growth at 0.1 µM (K562 [22]) of 96%, a growth at 1 µM (K562 [23]) of 93% and a growth at 1000 µM (SN12C) of 11%. The growth at 100 µM (PC-3 [24]) was -47%, the growth at 0.1 µM (TK-10) was 98% and the GI50 (K562 [25]; read-out: GI50) was 3.59 µM. The LC50 (concentration killing 50% of cells) (K562 [25]; read-out: LC50) was greater than 100 µM, the TGI (K562 [25]; read-out: TGI) was 32.9 µM and the GI50 (K562 [25]; read-out: pGI50 (converted)) was 3.63 µM. The LC50 (concentration killing 50% of cells) (K562 [25]; read-out: pLC50 (converted)) was greater than 100 µM and the TGI (K562 [25]; read-out: pTGI (converted)) was 33.1 µM.
